What all share (format): biochemical
Common to all, as to settings: substrate MOCAc-Pro-Leu-Gly-Leu-A2Pr(DNP)-Ala-Arg-NH2

For assay [1], the target named is T1, MMP-1 (Homo sapiens, UniProt P03956).
T1 construct: purchased Yagai
T1 sequence (P03956 100-469): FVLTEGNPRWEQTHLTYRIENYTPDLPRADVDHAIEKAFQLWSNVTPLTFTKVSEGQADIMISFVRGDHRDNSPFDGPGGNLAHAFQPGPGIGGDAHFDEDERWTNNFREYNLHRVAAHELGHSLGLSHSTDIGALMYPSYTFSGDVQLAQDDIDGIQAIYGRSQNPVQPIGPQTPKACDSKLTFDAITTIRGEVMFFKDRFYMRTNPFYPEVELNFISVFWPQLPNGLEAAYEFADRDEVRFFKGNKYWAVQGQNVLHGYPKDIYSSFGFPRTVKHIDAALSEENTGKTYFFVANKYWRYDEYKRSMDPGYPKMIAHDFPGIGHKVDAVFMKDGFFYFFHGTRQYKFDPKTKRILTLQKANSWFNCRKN
Nature of the assay: Assay for inhibitory activities on MMPs (fluorogenic peptide substrate): MMP-1. Here is the method: MMP-1 was purchased from Yagai.
(§1) The enzymatic activity on MMPs was analyzed by the method described in “C. Graham Knight, Frances Willenbrock and Gillian Murphy: A novel coumarin-labelled peptide for sensitive continuous assays of the matrix metalloproteinases: FEBS LETT., 296, (1992), 263-266”. The substrate: MOCAc-Pro-Leu-Gly-Leu-A2Pr(DNP)-Ala-Arg-NH2 was purchased from Peptide Institute, Inc., Osaka, Japan. The measurement of the inhibitory activities (IC50) was carried out by the following four methods;
(§2) (A) Reaction with substrate, enzyme (MMPs) and inhibitor
(§3) (B) Reaction with substrate and inhibitor, without enzyme
(§4) (C) Reaction with substrate and enzyme (MMPs), without inhibitor
(§5) (D) Reaction with substrate only
(§6) IC50 values were calculated by using the following formula and each fluorescence values of above four methods (A to D).
(§7) % inhibition={1−(A−B)/(C−D)}×100
(§8) IC50 means the concentration required to inhibit 50% of the enzyme activity.

Assay [2] has as its target T2, MMP-2 (Homo sapiens, UniProt P08253).
T2 construct: purchased Calbiochem-Novabiochem International, Inc
T2 sequence (P08253 110-660): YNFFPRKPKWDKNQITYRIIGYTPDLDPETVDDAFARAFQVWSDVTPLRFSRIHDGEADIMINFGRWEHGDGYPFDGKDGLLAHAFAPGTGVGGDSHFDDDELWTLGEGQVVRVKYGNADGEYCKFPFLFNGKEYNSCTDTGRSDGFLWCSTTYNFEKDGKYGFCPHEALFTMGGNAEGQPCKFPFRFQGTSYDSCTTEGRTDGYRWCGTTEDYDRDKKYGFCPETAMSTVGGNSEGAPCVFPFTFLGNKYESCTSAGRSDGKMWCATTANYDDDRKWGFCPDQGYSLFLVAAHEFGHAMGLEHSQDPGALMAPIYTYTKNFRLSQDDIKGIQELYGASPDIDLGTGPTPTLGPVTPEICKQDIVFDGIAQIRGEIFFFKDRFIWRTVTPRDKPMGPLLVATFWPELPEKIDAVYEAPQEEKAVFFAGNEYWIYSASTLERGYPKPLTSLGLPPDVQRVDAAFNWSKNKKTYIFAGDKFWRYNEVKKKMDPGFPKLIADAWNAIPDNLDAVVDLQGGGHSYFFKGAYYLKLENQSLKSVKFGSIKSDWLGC
Nature of the assay: Assay for inhibitory activities on MMPs (fluorogenic peptide substrate): MMP-2. Here is the method:
MMP-2 was purchased from Calbiochem-Novabiochem International, Inc.
as §1, §2, §3, §4, §5, §6, §7, §8

The target in assay [3] is T3, MMP-8 catalytic domain (Homo sapiens, UniProt P22894).
T3 construct: catalytic domain (^99Phe˜^262Gly); His-tag; enterokinase digestion-site; made in house; host or cells: Escherichia coli
Description: Assay for inhibitory activities on MMPs (fluorogenic peptide substrate): MMP-8.
Excerpt: In regard to MMP-8, catalytic domain (^99Phe˜^262Gly) was amplified with PCR using commercial available Human Bone Marrow cDNA. This was cloned in Escherichia. coli expression vector pTrc99AHE inserted with His-tag sequence and enterokinase digestion-site, induced and expressed by IPTG (Isopropyl-β-D-thiogalactopyranoside) and expressed in a insoluble fraction (Than F. Ho, M. Walid Qoronfleh, Robert C. Wahl, Trica A. Pulvino, Karen J. Vavra, Joe Falvo, Tracey M. Banks, Patricia G. Brake and Richard B. Ciccarelli: Gene expression, purification and characterization of recombinant human neutrophil collagenase. Gene 146, (1994) 297-301, Prepared by the a improved method of this material). Isolation of MMP-8 from insoluble fraction was carried out by dissolving in modifier (6M urea) by a usual method and purification with metal chelate chromatography. And then removing modifier (6M urea) with dialysis and refolding of the enzyme spontaneously gave activated MMP-8.
as §1, §2, §3, §4, §5, §6, §7, §8

Assay [4] has as its target T4, MMP-13 catalytic domain (Homo sapiens, UniProt P45452).
T4 construct: catalytic domain (^104Tyr˜^267Gly); His-tag; enterokinase digestion-site; made in house; host or cells: Escherichia coli
Description: Assay for inhibitory activities on MMPs (fluorogenic peptide substrate): MMP-13. Here is the method: In regard to MMP-13, mRNA was prepared from carcinoma cell SW1353 derived from human cartilage stimulate by IL-1, TNF and catalytic domain (^104Tyr˜^267Gly) was amplified with RT-PCR. This was cloned in Escherichia coli expression vector pTrc99AHE inserted with His-tag sequence and enterokinase digestion-site, induced and expressed by IPTG (Isopropyl-β-D-thiogalactopyranoside) and expressed in a insoluble fraction. Isolation of MMP-1.3 from a insoluble fraction was carried out by dissolving in modifier (6M urea) by a usual method and purification with metal chelate chromatography (Ni Chelateing Sepharose). And then removing modifier (6M urea) with dialyze and refolding of the enzyme spontaneously gave activated MMP-13.
as §1, §2, §3, §4, §5, §6, §7, §8

One molecule from US6897237B2, “MMP-12 inhibitors” (Shionogi & Co. Ltd., priority 2000, dated 2005) can be followed below.

In general, IC50 refers to the concentration at which inhibition is half-maximal. A higher IC50 goes with weaker potency.

T3 sequence (P22894 99-262): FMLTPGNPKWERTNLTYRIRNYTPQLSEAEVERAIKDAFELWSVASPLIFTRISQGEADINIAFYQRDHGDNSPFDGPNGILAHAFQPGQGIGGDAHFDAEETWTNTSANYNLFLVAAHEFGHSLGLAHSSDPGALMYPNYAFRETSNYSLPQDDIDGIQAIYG

In the case of `C[C@@H](NS(=O)(=O)c1ccc(C#Cc2ccc3ccccc3c2)s1)C(=O)O` [Compound B-6], the concentration for half-maximal inhibition (IC50) in assay [1] was above 10 µM; in assay [2] it was 0.35 µM; in assay [3], 2.09 µM; in assay [4] it was 0.84 µM.
